Results as given in US20180185360A1, “CGRP RECEPTOR ANTAGONIST COMPOUNDS FOR TOPICAL TREATMENT OF SKIN DISORDERS” (GALDERMA RESEARCH & DEVELOPMENT, priority 2015, published 2018).

Experiments:
[1] = system: αCGRP-induced skin blood perfusion increase; experiment: CGRP-induced mice model of vasodilatation (Laser Doppler skin blood perfusion, right ear); assay type: in vivo, BALB/c mice; settings: for decrease of the CGRP flush (AUC skin blood perfusion 0 to 15 min): topical, 90 min prior to αCGRP 20 μg/kg i.v.
Protocol: (§1) This study has been conducted on BALB/c mice, 5 mice per group have been used.
Body temperature was maintained at 35° C.-37° C. using an automated heating pad. Images were obtained from Laser Doppler perfusion imaging PIM3 (Perimed, France). For each mouse, the skin blood perfusion was evaluated every minute on the right ear. The laser beam of the PIM3 scanned a skin area of 2×2 cm. Prior to the treatment, 2 scans were performed.
The duration of the recording was 22 minutes in total.
The blood perfusion is mapped as colour coded images at intervals of 1 min. For each mouse ear, the area corresponding to the internal part of the ear is defined and adjusted for each image. From this selected area, we take the highest of the first two images as the background of blood perfusion (I ref). The background value is then subtracted from the next images of the kinetic.
The software calculates the erythematous surface (S) and the mean of the blood perfusion intensity (I) in this surface for the region of interest for all the images. […] For each time of kinetic, the relative area of blood perfusion is calculated as follow: Relative area of perfusion=(I/I ref)×S

[2] = Skin concentration two hours after single topical application on the mouse ear; assay type: in vivo, BALB/c mice; settings: 0.003% to 3%
From the text: as §1
At the end of the scan, blood is collected from the abdominal artery on anesthetized animals. The animals are then euthanatized and the treated ear collected and weighted. Plasma and ear are snapped frozen.

[3] = system: Dermatophagoides farinae (Der f)-induced AD-like skin inflammation; experiment: Der f-induced atopic dermatitis mouse model; assay type: in vivo, Balb/c mice
Protocol: Der f has been purchased from Greer Laboratories and a Der f solution has been prepared in 70% DMSO in MilliQ water. 375 μg of Der f has been applied during 7 weeks on the left ear of mice. Compounds to be tested were applied every day of the week except during the weekend, on the Der f treated ear from week 4 until day 44. • 1.2. Compounds • 1.2.1. MK3207 (CD10192/41) MK3207 (CD10192/41) has been provided by Galderma and 3% of MK3207 (CD10192/41) solutions in ethanol have been prepared. • 1.2.2. Triamcinolone Acetonide Triamcinolone acetonide has been chosen as positive control for the Der f model. 0.01% of triamcinolone acetonide solution in ethanol has been used. • 1.2.3. Ethanol Ethanol 100 has been chosen as a vehicle to solubilize the compounds. • 1.3. Mice Balb/c mice strain has been used for the study. These animals have been obtained from controlled breeding and were specific pathogen free. The animals have been provided by Janvier SAS, France. • 1.4. Protocol AD-like lesions have been induced by topical application of 375 μl of Der f solution on each side of the left ear for 7 weeks at day 1, day 8, day 15, day 22, day 29, day 36 and day 43. Mice have been treated from day 20 to day 43 five days by week with the different solutions administrated by the topical route. Measurement of ear swelling has been monitored 24 hours after each allergen application. After day 19, ear swelling has been daily measured before compound application. After mouse euthanasia, at Day 44 the left ear has been collected and has been washed in ethanol 70% and has been rinsed in PBS. Skin biopsies of the left ear, have then been collected for cytokines profile quantification with Luminex technique and for the quantification of the eosinophil peroxidase thanks to the ELISA method. Draining lymph nodes have been collected and cultivated a whole night restimulated or not with 0.5 mg/ml of Der f extract before quantifying the number of Der f specific lymphocytes T producing INFγ.

[4] = system: imiquimod (Aldara) induced psoriasiform skin inflammation; experiment: Imiquimod induced psoriasiform mice model; assay type: in vivo, Balb/c mice; settings: CD10192/41 at 2% topical twice daily, 2 h before and 6 h after Aldara
Protocol: Imiquimod psoriasiform model has been induced by daily topical application of Aldara (3.18 mg of imiquimod) for 3 or 7 days on the shaved back skin of Balb/c mice. The pharmacodynamic analysis were performed by using a transcriptional analysis at D4, a histological analysis at D4 and D8, a cells analysis at D8 and a Cytokines analysis at D8. • 1.2. Compounds • 1.2.1. Imiquimod
Imiquimod is sold under the name Aldara™ 5% by 3M-Pharmaceutical. 63.5 mg of Aldara cream is applied on the back skin of the mice, representing 3.2 mg of active compound. • 1.2.2. MK3207 (CD10192/41)
MK3207 compound is dissolved in PG/Ethanol 96 (30/70) and applied twice daily 2 h 00 before and 6 h 00 after Aldara treatment. • 1.2.3. Vehicles
PG/Ethanol (30/70) is used as a vehicle. • 1.2.4. Positive Control
CD0153F (Betamethasone valerate) at 0.01% (0.210 mM) in acetone by topical route is used as positive control. • 1.3. Mice
Balb/c mice strain has been used for the study. These animals have been obtained from controlled breeding and were specific pathogen free. The animals have been provided by Janvier SAS, France. • 1.4. Protocol […]
At day 4 skin biopsies were collected for quantifying gene expression of the inflammatory response via RT-PCR and for measuring epidermis thickness via histological stained slides (HE). […]

[5] = clinical development discontinued; cited from earlier work
[6] = MK3207 3% topical, day 44, ear skin biopsies, Luminex

Row | Structure (SMILES) | decrease of the CGRP flush (AUC skin blood perfusion 0 to 15 min) ([1]; MK3207 0.003% in ethanol, NS, p=0.2259) | decrease of the CGRP flush (AUC skin blood perfusion 0 to 15 min) ([1]; MK3207 0.03% in ethanol, NS, p=0.0567) | decrease of the CGRP flush (AUC skin blood perfusion 0 to 15 min) ([1]; MK3207 0.3% in ethanol, p=0.0112) | decrease of the CGRP flush (AUC skin blood perfusion 0 to 15 min) ([1]; MK3207 3% in ethanol, p=0.0083) | inhibition of αCGRP-induced increase in skin blood perfusion, dose dependence ([1]; topical 0.003% to 3%, 90 minutes prior to αCGRP, p=0.0017) | detection in skin samples [2] | eosinophil peroxidase production (EPX) ([3]; MK3207 3% topical, day 44, ear skin biopsies, ELISA) | production of IL17A [3, 6] | production of IL-4 [3, 6] | production of IL-5 [3, 6] | production of IL-13 [3, 6] | production of TNFα [3, 6] | production of IFNγ by lymphocyte T cells ([3]; draining lymph nodes restimulated with Der f, MK3207 3%, triamcinolone acetonide 0.01% topical) | ear swelling ([3]; topical MK3207, as soon as day 27 with a similar effect until day 43) | ear swelling / ear edema ([3]; topical in ethanol, MK3207 3% (day 44), triamcinolone acetonide 0.01%) | reduction of the epidermis thickness ([4]; day 4) | reduction of the number of IL17-production within the γδ T cells ([4]; day 8) | toxicity associated with oral use [5]
1 | O=C(CN1C(=O)C2(CCCC2)NC[C@H]1c1cc(F)cc(F)c1)Nc1ccc2c(c1)C[C@@]1(C2)C(=O)Nc2ncccc21 [MK3207, 2-[(8R)-8-(3,5-difluorophenyl)-10-oxo-6,9-diazaspiro[4.5]dec-9-yl]-N-[(2R)-2′-oxo-1,1′,2′,3-tetrahydrospiro[indene-2,3′-pyrrolo[2,3-b]pyridin]-5-yl]acetamide] | 31% | 49% | 70% | 80% | inhibited this increase in a dose-dependent manner | detected in skin samples at all doses tested | reduction | significantly reduced | significantly reduced | significantly reduced | significantly reduced | significantly reduced | decrease | decrease | decrease | 33% | 55% | severe hepatotoxicity
2 | NCCCC[C@H](NC(=O)[C@@H](Cc1cc(Br)c(O)c(Br)c1)NC(=O)N1CCC(N2Cc3ccccc3NC2=O)CC1)C(=O)N1CCN(c2ccncc2)CC1 [olcegepant, reference compound] |  |  |  |  |  |  |  |  |  |  |  |  |  |  |  |  |  | severe hepatotoxicity
3 | O=C(N[C@@H]1CC[C@@H](c2cccc(F)c2F)CN(CC(F)(F)F)C1=O)N1CCC(n2c(=O)[nH]c3ncccc32)CC1 [telcagepant, reference compound] |  |  |  |  |  |  |  |  |  |  |  |  |  |  |  |  |  | severe hepatotoxicity
